Reference: ChEMBL document CHEMBL4219066, “Identification and Mitigation of Reactive Metabolites of 2-Aminoimidazole-Containing Microsomal Prostaglandin E Synthase-1 Inhibitors Terminated Due to Clinical Drug-Induced Liver Injury” (J Med Chem, 2018)

Tests used:
[1] = Drug metabolism in rat hepatocytes assessed as N-carbamimidoyl-2-(difluoromethyl)-5-(pivalamidomethyl)nicotinamide formation at 2 uM after 4 hrs by LC-MS/MS analysis; format: ADME, cell-based, Hepatocyte
[2] = Drug metabolism in dog hepatocytes assessed as N-carbamimidoyl-2-(difluoromethyl)-5-(pivalamidomethyl)nicotinamide formation at 2 uM after 4 hrs by LC-MS/MS analysis; format: ADME, cell-based, Canis lupus familiaris, Hepatocyte
[3] = Drug metabolism in human hepatocytes assessed as N-carbamimidoyl-2-(difluoromethyl)-5-(pivalamidomethyl)nicotinamide formation at 2 uM after 4 hrs by LC-MS/MS analysis; format: ADME, cell-based, Hepatocyte
[4] = Drug metabolism in rat hepatocytes assessed as M2 metabolite formation at 2 uM after 4 hrs by LC-MS/MS analysis; format: ADME, cell-based, Hepatocyte
[5] = Drug metabolism in dog hepatocytes assessed as M2 metabolite formation at 2 uM after 4 hrs by LC-MS/MS analysis; format: ADME, cell-based, Canis lupus familiaris, Hepatocyte
[6] = Drug metabolism in human hepatocytes assessed as M2 metabolite formation at 2 uM after 4 hrs by LC-MS/MS analysis; format: ADME, cell-based, Hepatocyte
[7] = Drug metabolism in rat hepatocytes assessed as 2-(difluoromethyl)-5-((3-hydroxy-2,2-dimethylpropanamido)methyl)-N-(4-methyl-5-(4-(trifluoromethyl)phenyl)-1H-imidazol-2-yl)nicotinamide formation at 2 uM after 4 hrs by LC-MS/MS analysis; format: ADME, cell-based, Hepatocyte
[8] = Drug metabolism in dog hepatocytes assessed as 2-(difluoromethyl)-5-((3-hydroxy-2,2-dimethylpropanamido)methyl)-N-(4-methyl-5-(4-(trifluoromethyl)phenyl)-1H-imidazol-2-yl)nicotinamide formation at 2 uM after 4 hrs by LC-MS/MS analysis; format: ADME, cell-based, Canis lupus familiaris, Hepatocyte
[9] = Drug metabolism in human hepatocytes assessed as 2-(difluoromethyl)-5-((3-hydroxy-2,2-dimethylpropanamido)methyl)-N-(4-methyl-5-(4-(trifluoromethyl)phenyl)-1H-imidazol-2-yl)nicotinamide formation at 2 uM after 4 hrs by LC-MS/MS analysis; format: ADME, cell-based, Hepatocyte
[10] = Drug metabolism in dog hepatocytes assessed as 2-(difluoromethyl)-5-((3-hydroxy-2,2-dimethylpropanamido)methyl)-N-(4-(hydroxymethyl)-5-(4-(trifluoromethyl)phenyl)-1H-imidazol-2-yl)nicotinamide formation at 2 uM after 4 hrs by LC-MS/MS analysis; format: ADME, cell-based, Canis lupus familiaris, Hepatocyte
[11] = Drug metabolism in human liver microsomes assessed as metabolite M2 formation at 2 uM in presence of 1:1 ratio of unlabeled GSH and [glycine 13C2,15N]-labelled GSH after 0.5 hrs by HPLC-MS analysis; format: ADME, microsome
[12] = Drug metabolism in human liver microsomes assessed as M5 metabolite formation at 2 uM in presence of 1:1 ratio of unlabeled GSH and [glycine 13C2,15N]-labelled GSH after 0.5 hrs by HPLC-MS analysis; format: ADME, microsome
[13] = Drug metabolism in human liver microsomes assessed as metabolite M6 formation at 2 uM in presence of 1:1 ratio of unlabeled GSH and [glycine 13C2,15N]-labelled GSH after 0.5 hrs by HPLC-MS analysis; format: ADME, microsome
[14] = Drug metabolism in Sprague-Dawley rat plasma assessed as N-(4-methyl-5-(4-(trifluoromethyl)phenyl)-1H-imidazol-2-yl)acetamide formation at 1000 mg/kg, po measured after 2 hrs post dose by LC/MS analysis; format: ADME, organism-based; conditions: in vivo
[15] = Drug metabolism in Beagle dog plasma assessed as N-(4-methyl-5-(4-(trifluoromethyl)phenyl)-1H-imidazol-2-yl)acetamide formation at 300 to 600 mg/kg, po measured after 2 hrs post dose by LC/MS analysis; format: ADME, organism-based, Canis lupus familiaris; conditions: in vivo
[16] = Drug metabolism in Beagle dog plasma assessed as (2S,3S,4S,5R,6R)-3,4,5-trihydroxy-6-(4-methyl-5-(4-(trifluoromethyl)phenyl)-1H-imidazol-2-ylamino)tetrahydro-2H-pyran-2-carboxylic acid formation at 300 to 600 mg/kg, po measured after 2 hrs post dose by LC/MS analysis; format: ADME, organism-based, Canis lupus familiaris; conditions: in vivo
[17] = Drug metabolism in rat hepatocytes assessed as 2-(difluoromethyl)-5-((3-hydroxy-2-methylpropanamido)methyl)-N-(4-methyl-5-(4-(trifluoromethyl)phenyl)-1H-imidazol-2-yl)nicotinamide formation at 2 uM after 4 hrs by LC-MS/MS analysis; format: ADME, cell-based, Hepatocyte
[18] = Drug metabolism in human hepatocytes assessed as 2-(difluoromethyl)-5-((3-hydroxy-2-methylpropanamido)methyl)-N-(4-methyl-5-(4-(trifluoromethyl)phenyl)-1H-imidazol-2-yl)nicotinamide formation at 2 uM after 4 hrs by LC-MS/MS analysis; format: ADME, cell-based, Hepatocyte
[19] = Drug metabolism in rat hepatocytes assessed as 2-(difluoromethyl)-5-((2-hydroxy-2-methylpropanamido)methyl)-N-(4-methyl-5-(4-(trifluoromethyl)phenyl)-1H-imidazol-2-yl)nicotinamide formation at 2 uM after 4 hrs by LC-MS/MS analysis; format: ADME, cell-based, Hepatocyte
[20] = Drug metabolism in dog hepatocytes assessed as 2-(difluoromethyl)-5-((2-hydroxy-2-methylpropanamido)methyl)-N-(4-methyl-5-(4-(trifluoromethyl)phenyl)-1H-imidazol-2-yl)nicotinamide formation at 2 uM after 4 hrs by LC-MS/MS analysis; format: ADME, cell-based, Canis lupus familiaris, Hepatocyte
[21] = Drug metabolism in human hepatocytes assessed as 2-(difluoromethyl)-5-((2-hydroxy-2-methylpropanamido)methyl)-N-(4-methyl-5-(4-(trifluoromethyl)phenyl)-1H-imidazol-2-yl)nicotinamide formation at 2 uM after 4 hrs by LC-MS/MS analysis; format: ADME, cell-based, Hepatocyte
[22] = Drug metabolism in rat hepatocytes assessed as N-carbamimidoyl-2-(difluoromethyl)-5-(isobutyramidomethyl)nicotinamide formation at 2 uM after 4 hrs by LC-MS/MS analysis; format: ADME, cell-based, Hepatocyte
[23] = Drug metabolism in dog hepatocytes assessed as N-carbamimidoyl-2-(difluoromethyl)-5-(isobutyramidomethyl)nicotinamide formation at 2 uM after 4 hrs by LC-MS/MS analysis; format: ADME, cell-based, Canis lupus familiaris, Hepatocyte
[24] = Drug metabolism in human hepatocytes assessed as N-carbamimidoyl-2-(difluoromethyl)-5-(isobutyramidomethyl)nicotinamide formation at 2 uM after 4 hrs by LC-MS/MS analysis; format: ADME, cell-based, Hepatocyte
[25] = Drug metabolism in rat hepatocytes assessed as 2-(difluoromethyl)-5-(methacrylamidomethyl)-N-(4-methyl-5-(4-(trifluoromethyl)phenyl)-1H-imidazol-2-yl)nicotinamide formation at 2 uM after 4 hrs by LC-MS/MS analysis; format: ADME, cell-based, Hepatocyte
[26] = Drug metabolism in rat hepatocytes assessed as 4-methyl-5-(4-(trifluoromethyl)phenyl)-1H-imidazol-2-amine formation at 2 uM after 4 hrs by LC-MS/MS analysis; format: ADME, cell-based, Hepatocyte
[27] = Drug metabolism in human hepatocytes assessed as 4-methyl-5-(4-(trifluoromethyl)phenyl)-1H-imidazol-2-amine formation at 2 uM after 4 hrs by LC-MS/MS analysis; format: ADME, cell-based, Hepatocyte
[28] = Drug metabolism in rat hepatocytes assessed as metabolite M7 formation at 2 uM after 4 hrs by LC-MS/MS analysis; format: ADME, cell-based, Hepatocyte
[29] = Drug metabolism in human hepatocytes assessed as metabolite M7 formation at 2 uM after 4 hrs by LC-MS/MS analysis; format: ADME, cell-based, Hepatocyte
[30] = Drug metabolism in human liver microsomes assessed as metabolite M7 formation at 2 uM in presence of 1:1 ratio of unlabeled GSH and [glycine 13C2,15N]-labelled GSH after 0.5 hrs by HPLC-MS analysis; format: ADME, microsome
[31] = Drug metabolism in human liver microsomes assessed as metabolite M9 formation at 2 uM in presence of 1:1 ratio of unlabeled GSH and [glycine 13C2,15N]-labelled GSH after 0.5 hrs by HPLC-MS analysis; format: ADME, microsome
[32] = Drug metabolism in Sprague-Dawley rat plasma assessed as 2-(difluoromethyl)-5-((3-hydroxy-2-methylpropanamido)methyl)-N-(4-methyl-5-(4-(trifluoromethyl)phenyl)-1H-imidazol-2-yl)nicotinamide formation at 1000 mg/kg, po measured after 2 hrs post dose by LC/MS analysis; format: ADME, organism-based; conditions: in vivo
[33] = Drug metabolism in Beagle dog plasma assessed as 2-(difluoromethyl)-5-((3-hydroxy-2-methylpropanamido)methyl)-N-(4-methyl-5-(4-(trifluoromethyl)phenyl)-1H-imidazol-2-yl)nicotinamide formation at 300 to 600 mg/kg, po measured after 2 hrs post dose by LC/MS analysis; format: ADME, organism-based, Canis lupus familiaris; conditions: in vivo
[34] = In vivo drug metabolism in human plasma assessed as 2-(difluoromethyl)-5-((3-hydroxy-2-methylpropanamido)methyl)-N-(4-methyl-5-(4-(trifluoromethyl)phenyl)-1H-imidazol-2-yl)nicotinamide formation HPLC-MS analysis; format: ADME, organism-based
[35] = Drug metabolism in Sprague-Dawley rat plasma assessed as 2-(difluoromethyl)-5-((2-hydroxy-2-methylpropanamido)methyl)-N-(4-methyl-5-(4-(trifluoromethyl)phenyl)-1H-imidazol-2-yl)nicotinamide formation at 1000 mg/kg, po measured after 2 hrs post dose by LC/MS analysis; format: ADME, organism-based; conditions: in vivo
[36] = Drug metabolism in Beagle dog plasma assessed as 2-(difluoromethyl)-5-((2-hydroxy-2-methylpropanamido)methyl)-N-(4-methyl-5-(4-(trifluoromethyl)phenyl)-1H-imidazol-2-yl)nicotinamide formation at 300 to 600 mg/kg, po measured after 2 hrs post dose by LC/MS analysis; format: ADME, organism-based, Canis lupus familiaris; conditions: in vivo
[37] = In vivo drug metabolism in human plasma assessed as 2-(difluoromethyl)-5-((2-hydroxy-2-methylpropanamido)methyl)-N-(4-methyl-5-(4-(trifluoromethyl)phenyl)-1H-imidazol-2-yl)nicotinamide formation HPLC-MS analysis; format: ADME, organism-based
[38] = In vivo drug metabolism in human plasma assessed as 2-(difluoromethyl)-5-(methacrylamidomethyl)-N-(4-methyl-5-(4-(trifluoromethyl)phenyl)-1H-imidazol-2-yl)nicotinamide formation HPLC-MS analysis; format: ADME, organism-based
[39] = Drug metabolism in Sprague-Dawley rat plasma assessed as 5-(aminomethyl)-2-(difluoromethyl)-N-(4-methyl-5-(4-(trifluoromethyl)phenyl)-1H-imidazol-2-yl)nicotinamide formation at 1000 mg/kg, po measured after 2 hrs post dose by LC/MS analysis; format: ADME, organism-based; conditions: in vivo
[40] = Drug metabolism in Sprague-Dawley rat plasma assessed as 4-methyl-5-(4-(trifluoromethyl)phenyl)-1H-imidazol-2-amine formation at 1000 mg/kg, po measured after 2 hrs post dose by LC/MS analysis; format: ADME, organism-based; conditions: in vivo
[41] = Drug metabolism in Beagle dog plasma assessed as 4-methyl-5-(4-(trifluoromethyl)phenyl)-1H-imidazol-2-amine formation at 300 to 600 mg/kg, po measured after 2 hrs post dose by LC/MS analysis; format: ADME, organism-based, Canis lupus familiaris; conditions: in vivo
[42] = In vivo drug metabolism in human urine assessed as 2-(difluoromethyl)-5-((3-hydroxy-2-methylpropanamido)methyl)-N-(4-methyl-5-(4-(trifluoromethyl)phenyl)-1H-imidazol-2-yl)nicotinamide formation by HPLC-MS analysis; format: ADME, organism-based
[43] = In vivo drug metabolism in human urine assessed as 2-(difluoromethyl)-5-((2-hydroxy-2-methylpropanamido)methyl)-N-(4-methyl-5-(4-(trifluoromethyl)phenyl)-1H-imidazol-2-yl)nicotinamide formation by HPLC-MS analysis; format: ADME, organism-based
[44] = In vivo drug metabolism in human urine assessed as N-carbamimidoyl-2-(difluoromethyl)-5-(isobutyramidomethyl)nicotinamide formation by HPLC-MS analysis; format: ADME, organism-based
[45] = In vivo drug metabolism in human urine assessed as 5-(aminomethyl)-2-(difluoromethyl)-N-(4-methyl-5-(4-(trifluoromethyl)phenyl)-1H-imidazol-2-yl)nicotinamide formation by HPLC-MS analysis; format: ADME, organism-based
[46] = Drug metabolism in human hepatocytes assessed as N-carbamimidoyl-2-chloro-5-(pivalamidomethyl)benzamide formation at 2 uM after 4 hrs by LC-MS/MS analysis; format: ADME, cell-based, Hepatocyte
[47] = Drug metabolism in rat hepatocytes assessed as N-carbamimidoyl-2-chloro-5-(pivalamidomethyl)benzamide formation at 2 uM after 4 hrs by LC-MS/MS analysis; format: ADME, cell-based, Hepatocyte
[48] = Drug metabolism in rat hepatocytes assessed as 2-chloro-5-((3-hydroxy-2,2-dimethylpropanamido)methyl)-N-(4-methyl-1H-imidazol-2-yl)benzamide formation at 2 uM after 4 hrs by LC-MS/MS analysis; format: ADME, cell-based, Hepatocyte
[49] = Drug metabolism in human hepatocytes assessed as 2-chloro-5-((3-hydroxy-2,2-dimethylpropanamido)methyl)-N-(4-methyl-1H-imidazol-2-yl)benzamide formation at 2 uM after 4 hrs by LC-MS/MS analysis; format: ADME, cell-based, Hepatocyte
[50] = Drug metabolism in rat hepatocytes assessed as 2-chloro-N-(4-(hydroxymethyl)-1H-imidazol-2-yl)-5-(pivalamidomethyl)benzamide formation at 2 uM after 4 hrs by LC-MS/MS analysis; format: ADME, cell-based, Hepatocyte
[51] = Drug metabolism in human hepatocytes assessed as 2-chloro-N-(4-(hydroxymethyl)-1H-imidazol-2-yl)-5-(pivalamidomethyl)benzamide formation at 2 uM after 4 hrs by LC-MS/MS analysis; format: ADME, cell-based, Hepatocyte

Measured: Drug metabolism

Cc1nc(NC(=O)c2cc(CNC(=O)C(C)(C)C)cnc2C(F)F)[nH]c1-c1ccc(C(F)(F)F)cc1
Metabolite_Detected: [1] | [2] | [3] | [4] | [5] | [6] | [7] | [8] | [9] | [10] | [11] | [12] | [13] | [14] | [15] | [16]

Cc1nc(NC(=O)c2cc(CNC(=O)C(C)C)cnc2C(F)F)[nH]c1-c1ccc(C(F)(F)F)cc1
not listed: [1] | [2] | [3] | [4] | [5] | [6] | [7] | [8] | [9] | [10] | [11] | [12] | [13] | [14] | [15] | [16] | [46] | [47] | [48] | [49] | [50] | [51]
Metabolite_Detected: all other assays above

Cc1c[nH]c(NC(=O)c2cc(CNC(=O)C(C)(C)C)ccc2Cl)n1
Metabolite_Detected: [46] | [47] | [48] | [49] | [50] | [51]
